The assay deals with Ubiquitin-conjugating enzyme E2 N (Homo sapiens) (UniProt P61088). Nature of the assay: inhibition of Ubc13-driven ubiquitin chain assembly – biochemical, TR-FRET, Uev1a, selectivity assay, SAR follow-up (AID 2658). The following applies: Ubc13/Uev1a polyubiquitination, in vitro. (Time-resolved FRET reads energy transfer from a long-lived donor to a nearby acceptor.)

The values below come from PubChem BioAssay AID2658 (Sanford-Burnham Center for Chemical Genomics, 2010).

Where “and” joins values, the source holds several entries; their conditions need not be identical. Equal entries are not always repeated. Calls of active or inactive are those of the source. The rule behind the calls is not given here.

Chain of Ubiquitin-conjugating enzyme E2 N (Homo sapiens) (P61088 whole entry, looked up): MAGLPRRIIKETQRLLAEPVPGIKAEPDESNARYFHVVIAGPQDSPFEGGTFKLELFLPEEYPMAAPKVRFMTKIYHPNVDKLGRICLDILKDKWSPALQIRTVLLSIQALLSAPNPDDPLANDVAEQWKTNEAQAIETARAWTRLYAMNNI

In the case of `Cc1ccccc1CNC(=O)COC(=O)c1cc(-c2ccco2)nc2ccccc12`, the half-maximal inhibitory concentration (IC50) (usually the concentration that gives 50% inhibition) is 81.1 µM. For `Cc1[nH][nH]c(=O)c1C(c1ccc(-c2ccc(C(=O)O)cc2)o1)c1c(C)[nH][nH]c1=O`, the IC50 was > 100 µM (inactive). The figure for `O=C(N/N=C/c1ccc(F)cc1)c1cc(-c2ccco2)nc2ccccc12` is 26.1 µM and 31.2 µM.

`O=C(COC(=O)c1cc(-c2ccco2)nc2ccccc12)NCc1ccc(F)cc1`: the IC50 was 72.7 µM. The figure for `O=C(NN=Cc1ccc(F)cc1)c1cc(-c2ccco2)nc2ccccc12` is > 100 µM (inactive); for `COc1ccc(CNC(=O)COC(=O)c2cc(-c3ccco3)nc3ccccc23)cc1OC` it is > 100 µM (inactive); for `Cc1ccc(Nc2cc3ccccc3c(=O)[nH]2)cc1` it is > 100 µM (inactive). On to `O=C(COC(=O)c1cc(-c2ccco2)nc2ccccc12)NCc1ccccc1`, for which the IC50 was > 100 µM (inactive). Regarding `O=c1c2ccccc2nc(COc2ccccc2)n1N=Cc1cc([N+](=O)[O-])ccc1O`, the IC50 was > 100 µM (inactive). Regarding `O=c1[nH]c(Nc2ccccc2)cc2ccccc12`, the IC50 was > 100 µM (inactive). Regarding `O=C(COC(=O)c1cc(-c2ccco2)nc2ccccc12)NCc1ccc(Cl)cc1`, the IC50 is 73.4 µM and 74.4 µM. Turning to `O=C(OCC(=O)N1CCc2ccccc2C1)c1cc(-c2ccco2)nc2ccccc12`, the IC50 was > 100 µM (inactive). The figure for `CN(C(=O)COC(=O)c1cc(-c2ccco2)nc2ccccc12)C1CCS(=O)(=O)C1` (stereo not drawn) is 47.2 µM; for `COc1ccc(CNC(=O)CCOC(=O)c2cc(-c3ccco3)nc3ccccc23)cc1` it is > 100 µM (inactive); for `Cc1ccc(CNC(=O)COC(=O)c2cc(-c3ccco3)nc3ccccc23)cc1` it is 58.9 µM. On to `CC(=NOCc1nc2ccccc2c(=O)n1N=Cc1cc(C)cc([N+](=O)[O-])c1O)c1ccccc1`, for which the IC50 was > 100 µM (inactive). Take `COc1ccc(CCNC(=O)COC(=O)c2cc(-c3ccco3)nc3ccccc23)cc1`: the IC50 was > 100 µM (inactive).

`COc1ccc(CNC(=O)COC(=O)c2cc(-c3ccc(C)o3)nc3ccccc23)cc1`: the concentration for half-maximal inhibition (IC50) was 86.6 µM. With `CCN(CC)CCNC(=O)c1cc(-c2ccco2)nc2ccccc12`, the IC50 is > 100 µM (inactive). On to `Cc1ccc(NC(=O)Cn2c(O)c(N=NC(=O)c3cc4ccccc4cc3O)c3ccccc32)cc1`, for which the IC50 is > 100 µM (inactive).

Regarding `C/C(=N\OCc1nc2ccccc2c(=O)n1/N=C/c1cc(Br)ccc1O)c1ccccc1`, the IC50 was > 100 µM (inactive). As for `Cc1cccc2c(N=Nc3ccc(S(=O)(=O)Nc4cccc(Cl)c4)cc3[N+](=O)[O-])c(O)[nH]c12`, the IC50 was > 100 µM (inactive). As to `O=C(N=Nc1c(O)n(Cc2ccccc2)c2ccccc12)c1cc2ccccc2cc1O`, the IC50 is > 100 µM (inactive).
